Experimental findings from patent EP0284935A1, “5-Substituted quinolone- and naphthyridone carboxylic acid derivatives” (BAYER AG, priority 1987, dated 1988) are described below.

In brackets after ≈: the same amount, converted by molar mass.

Common to all, as to assay: Agar dilution test, minimum inhibitory concentration
What all share (type): cell-based
In general terms: Agar dilution tests growth on a series of plates holding different concentrations.

In one test the test system is Morg. morg. 932. As to conditions: test strain Morg. morg. 932; Isosensitest-Agar (Oxoid), inoculum ca. 10^4 germs per inoculation point; read-out: Minimale Hemmkonzentrationen.
The test system of the next test is Pseudomonas Walter. As to conditions: test strain Pseudomonas Walter; Isosensitest-Agar (Oxoid), inoculum ca. 10^4 germs per inoculation point; read-out: Minimale Hemmkonzentrationen.
A further test deals with Providencia 12012. As to conditions: test strain Providencia 12012; Isosensitest-Agar (Oxoid), inoculum ca. 10^4 germs per inoculation point; read-out: Minimale Hemmkonzentrationen.
A further test relates to Proteus mir. 8223. As to conditions: test strain Proteus mir. 8223; Isosensitest-Agar (Oxoid), inoculum ca. 10^4 germs per inoculation point; read-out: Minimale Hemmkonzentrationen.
The next test relates to E.coli 455/7. As to conditions: Escherichia coli; test strain E.coli 455/7; Isosensitest-Agar (Oxoid), inoculum ca. 10^4 germs per inoculation point; read-out: Minimale Hemmkonzentrationen.
For the next test, the system named is Enteroc. 9790. As to conditions: test strain Enteroc. 9790; Isosensitest-Agar (Oxoid), inoculum ca. 10^4 germs per inoculation point; read-out: Minimale Hemmkonzentrationen.
In a further test the test system is Staph. 1756. As to conditions: test strain Staph. 1756; Isosensitest-Agar (Oxoid), inoculum ca. 10^4 germs per inoculation point; read-out: Minimale Hemmkonzentrationen.
In a further test the test system is Providencia 12052. As to conditions: test strain Providencia 12052; Isosensitest-Agar (Oxoid), inoculum ca. 10^4 germs per inoculation point; read-out: Minimale Hemmkonzentrationen.
Another test concerns Proteus vulg. 1017. As to conditions: test strain Proteus vulg. 1017; Isosensitest-Agar (Oxoid), inoculum ca. 10^4 germs per inoculation point; read-out: Minimale Hemmkonzentrationen.
A further test has as its system Serratia 16040. As to conditions: test strain Serratia 16040; Isosensitest-Agar (Oxoid), inoculum ca. 10^4 germs per inoculation point; read-out: Minimale Hemmkonzentrationen.
The test system of another test is Staph. FK 422. As to conditions: test strain Staph. FK 422; Isosensitest-Agar (Oxoid), inoculum ca. 10^4 germs per inoculation point; read-out: Minimale Hemmkonzentrationen.
A further test relates to E.coli A261. As to conditions: Escherichia coli; test strain E.coli A261; Isosensitest-Agar (Oxoid), inoculum ca. 10^4 germs per inoculation point; read-out: Minimale Hemmkonzentrationen.
The subject of a further test is Staph. 133. As to conditions: test strain Staph. 133; Isosensitest-Agar (Oxoid), inoculum ca. 10^4 germs per inoculation point; read-out: Minimale Hemmkonzentrationen.
The subject of a further test is Klebsiella 8085. As to conditions: test strain Klebsiella 8085; Isosensitest-Agar (Oxoid), inoculum ca. 10^4 germs per inoculation point; read-out: Minimale Hemmkonzentrationen.
The test system of a further test is E.coli Neumann. As to conditions: Escherichia coli; test strain E.coli Neumann; Isosensitest-Agar (Oxoid), inoculum ca. 10^4 germs per inoculation point; read-out: Minimale Hemmkonzentrationen.
The test system of the next test is Pseudomonas Ellsworth. As to conditions: test strain Pseudomonas Ellsworth; Isosensitest-Agar (Oxoid), inoculum ca. 10^4 germs per inoculation point; read-out: Minimale Hemmkonzentrationen.
In the next test the test system is Enteroc. 27101. As to conditions: test strain Enteroc. 27101; Isosensitest-Agar (Oxoid), inoculum ca. 10^4 germs per inoculation point; read-out: Minimale Hemmkonzentrationen.
A further test has as its system Morg. morg. 11006. As to conditions: test strain Morg. morg. 11006; Isosensitest-Agar (Oxoid), inoculum ca. 10^4 germs per inoculation point; read-out: Minimale Hemmkonzentrationen.
For a further test, the system named is Klebsiella 63. As to conditions: test strain Klebsiella 63; Isosensitest-Agar (Oxoid), inoculum ca. 10^4 germs per inoculation point; read-out: Minimale Hemmkonzentrationen.
The next test has as its system Proteus mir. 8175. As to conditions: test strain Proteus mir. 8175; Isosensitest-Agar (Oxoid), inoculum ca. 10^4 germs per inoculation point; read-out: Minimale Hemmkonzentrationen.

On to `CN1CCN(c2c(F)c(N)c3c(=O)c(C(=O)O)cn(C4CC4)c3c2F)CC1` [Beispiel 19, 5-Amino-1-cyclopropyl-6,8-difluor-1,4-dihydro-7-(4-methyl-1-piperanyl)-4-oxo-3-chinolincarbonsäure], for which the MIC in the test with Morg. morg. 932 amounted to 0.03 µg/mL (≈ 0.0793 µM); in the test on Pseudomonas Walter, 0.5 µg/mL (≈ 1.32 µM); in the test on Providencia 12012, 0.06 µg/mL (≈ 0.159 µM); in the test on Proteus mir. 8223, 0.25 µg/mL (≈ 0.661 µM); in the test with E.coli 455/7, 1 µg/mL (≈ 2.64 µM); in the test with Enteroc. 9790, 0.25 µg/mL (≈ 0.661 µM). Also, the MIC with Staph. 1756 was 0.06 µg/mL (≈ 0.159 µM); with Providencia 12052, 1 µg/mL (≈ 2.64 µM); in the test with Proteus vulg. 1017, 0.06 µg/mL (≈ 0.159 µM); with Serratia 16040, 4 µg/mL (≈ 10.6 µM); in the test with Staph. FK 422 it was 0.03 µg/mL (≈ 0.0793 µM); in the test with E.coli A261, 0.25 µg/mL (≈ 0.661 µM). In addition, the MIC with Staph. 133 came out at 0.06 µg/mL (≈ 0.159 µM); in the test on Klebsiella 8085, 0.03 µg/mL (≈ 0.0793 µM); with E.coli Neumann it was 0.03 µg/mL (≈ 0.0793 µM); with Pseudomonas Ellsworth it was 0.06 µg/mL (≈ 0.159 µM); with Enteroc. 27101 it was 0.25 µg/mL (≈ 0.661 µM); in the test with Morg. morg. 11006 it was 0.06 µg/mL (≈ 0.159 µM). Also, in the test on Klebsiella 63, the MIC is 0.03 µg/mL (≈ 0.0793 µM).

As to `Nc1c(F)c(N2CCOCC2)c(F)c2c1c(=O)c(C(=O)O)cn2C1CC1` [Beispiel 26, 5-Amino-1-cyclopropyl-6,8-difluor-1,4-dihydro-7-morpholino-4-oxo-3-chinolincarbonsäure], the MIC in the test with Morg. morg. 932 is 0.03 µg/mL (≈ 0.0821 µM); in the test on Pseudomonas Walter, 2 µg/mL (≈ 5.47 µM); in the test on Providencia 12012, 0.06 µg/mL (≈ 0.164 µM); in the test with Proteus mir. 8223 it was 0.5 µg/mL (≈ 1.37 µM); in the test on E.coli 455/7, 16 µg/mL (≈ 43.8 µM); in the test on Enteroc. 9790, 0.25 µg/mL (≈ 0.684 µM). Moreover, the MIC with Staph. 1756 was found to be 0.03 µg/mL (≈ 0.0821 µM); with Providencia 12052 it was 8 µg/mL (≈ 21.9 µM); in the test with Proteus vulg. 1017, 0.03 µg/mL (≈ 0.0821 µM); in the test on Serratia 16040 it was 8 µg/mL (≈ 21.9 µM); in the test with Staph. FK 422, 0.03 µg/mL (≈ 0.0821 µM); in the test with E.coli A261, 4 µg/mL (≈ 10.9 µM). Also, the MIC with Staph. 133 was determined as 0.03 µg/mL (≈ 0.0821 µM); in the test with Klebsiella 8085, 0.06 µg/mL (≈ 0.164 µM); with E.coli Neumann, 0.03 µg/mL (≈ 0.0821 µM); in the test on Pseudomonas Ellsworth, 0.03 µg/mL (≈ 0.0821 µM); in the test on Enteroc. 27101, 0.25 µg/mL (≈ 0.684 µM); in the test with Klebsiella 63, 0.06 µg/mL (≈ 0.164 µM).

As to `Nc1c(F)c(-n2ccnc2)c(F)c2c1c(=O)c(C(=O)O)cn2C1CC1` [Beispiel 30, 5-Amino-1-cyclopropyl-6,8-difluor-1,4-dihydro-7-(1-imidazolyl)-4-oxo-3-chinolincarbonsäure-methansulfonat], the MIC was found to be 0.06 µg/mL (≈ 0.173 µM) in the test on Proteus mir. 8175; 2 µg/mL (≈ 5.78 µM) in the test with Pseudomonas Walter; 2 µg/mL (≈ 5.78 µM) in the test with Proteus mir. 8223; 16 µg/mL (≈ 46.2 µM) with E.coli 455/7; 0.25 µg/mL (≈ 0.722 µM) with Enteroc. 9790; 4 µg/mL (≈ 11.6 µM) in the test with Providencia 12052. Moreover, the MIC with Serratia 16040 worked out at 8 µg/mL (≈ 23.1 µM); in the test on E.coli A261, 2 µg/mL (≈ 5.78 µM); with Staph. 133 it was 0.03 µg/mL (≈ 0.0866 µM); in the test on Klebsiella 8085 it was 0.03 µg/mL (≈ 0.0866 µM); with E.coli Neumann it was 0.03 µg/mL (≈ 0.0866 µM); in the test with Pseudomonas Ellsworth, 0.25 µg/mL (≈ 0.722 µM). Also, the values for the MIC in the test with Enteroc. 27101, with Morg. morg. 11006 and with Klebsiella 63 were 0.25 µg/mL (≈ 0.722 µM), 0.06 µg/mL (≈ 0.173 µM) and 0.06 µg/mL (≈ 0.173 µM), respectively.
